Laboratory results as given in patent publication US9814776B2, “Pharmaceutical preparation comprising aminopyrazole derivative” (Chugai Seiyaku Kabushiki Kaisha, priority 2013, dated 2017).
In brackets after ≈: the same amount, converted by molar mass.

Assay: Solubility of Compound 1 malate after 24 hours in Dissolution Test Solution 1 of the Japanese Pharmacopoeia with 5% surfactant
Format: physicochemical
Settings: thermodynamic from solid
Protocol: The surfactants shown in Table 3 and Dissolution Test Solution 1 of the Japanese Pharmacopoeia were used, and the concentration of each surfactant was adjusted to 5%. Compound 1 malate was sufficiently added thereto, the mixture was stirred, and the solubility after 24 hours was measured.

## Cc1nc2cc(-n3ncc(C(=O)c4cc5ccccc5[nH]4)c3N)ccc2[nH]1 [Compound 1, [5-amino-1-(2-methyl-3H-benzimidazol-5-yl)-1H-pyrazol-4-yl]-(1H-indol-2-yl)-methanone]
pH 1.2, aqueous with cosolvent or surfactant or cyclodextrin, 5% Polyoxyethylene (10) octylphenyl ether
  solubility at 24 h: 145 µg/mL (≈ 406 µM)
pH 1.2, aqueous with cosolvent or surfactant or cyclodextrin, 5% Polysorbate 80
  solubility at 24 h: 138 µg/mL (≈ 388 µM)
pH 1.2, aqueous with cosolvent or surfactant or cyclodextrin, 5% Sodium lauryl sulfate
  solubility at 24 h: 136 µg/mL (≈ 383 µM)
pH 1.2, simulated gastric fluid, no surfactant
  solubility at 24 h: 18.5 µg/mL (≈ 51.9 µM)
